Data reported in PubChem BioAssay AID1963971 (Molecular Pharmacology Branch, DTP, NCI, 2024).
pIC50: −log10 of the molar value. Where “and” joins values, the source holds several entries; their conditions need not be identical. Equal entries are not always repeated.

Tested on: 953936-095-R-J2-PDC spheroids with HUVEC/MSC, viability
Test: Anticancer human tumor 953936-095-R-J2-PDC patient-derived cervical squamous cell carcinoma cell line growth inhibition [PI3K]
Details: for viability, T/C: stronger effect = lower value
Text: Combinatorial screen of targeted agents with the PI3K inhibitors inavolisib, alpelisib, duvelisib, and copanlisib in multi-cell type tumor spheroids
A high-throughput screen of multi-cell type tumor spheroids was designed to identify active combinations of targeted small molecules and PI3K pathway inhibitors. Complex spheroids include a stromal component modeled by human endothelial cells (HUVEC) and fibroblasts modeled by human mesenchymal stem cells (MSCs). The concentration ranges selected for each drug and investigational agent were based upon clinically achievable concentrations if the clinical Cmax of the agent was known.
Compounds. The drugs and investigational agents: inavolisib (NSC800729), alpelisib (NSC765974), duvelisib (NSC772469), copanlisib (NSC816437), ipatasertib (NSC767898), afuresertib (NSC778305), talazoparib (NSC767125), sapanisertib (NSC764658), selumetinib (NSC741078), tovorafenib (DAY101, NSC766906), vemurafenib (NSC761431), ravoxertinib (NSC781343), sotorasib (NSC818433), MRTX1133 (NSC 836407), abemaciclib (NSC 768073), palbociclib (NSC758247), venetoclax (NSC 766270), SY5609 (NSC837396), enzalutamide (NSC755605), and darolutamide (NSC825331), were obtained from the National Cancer Institute (NCI) Developmental Therapeutics Program Chemical Repository. The FDA-approved anticancer drug set is available from the NCI Developmental Therapeutics Program. […] The stock solutions were prepared in dimethyl sulfoxide (DMSO, Sigma-Aldrich, St. Louis, MO, cat. D2650) at 800-fold the tested concentration and stored at -70 degrees C prior to their use. All drugs and investigational agents were tested over a range starting from a high concentration at or near the clinical Cmax and decreasing in half-log increments. If the clinical Cmax for an agent had not been determined, the highest concentration tested was 10 microM.
Cell Culture. All cells were maintained in an incubator at 37 degrees C and 5% CO2 with 95% humidity. The PDC lines were cultured according to standard operating procedures established by the NCI PDMR (https://pdmr.cancer.gov/sops/default.htm). All PDCs were thawed and cultured in Matrigel-coated flasks prepared with a working solution of 1X Ham's F-12 nutrient mix, without supplementation (Invitrogen, Waltham, MA, cat. 11765054), 100 U/mL penicillin-streptomycin (Invitrogen, cat. 15140122), and 2.5% Matrigel (Corning Inc., Corning, NY, cat. 354248) for the first three passages. The 354836-022-R-J1-PDC, 475296-252-R-J1-PDC, and 997726-040-R-J2-PDC lines were cultured in 6A media, which includes advanced DMEM/F-12 (Thermo Fisher Scientific, cat. 12634028), 10 mM HEPES (Thermo Fisher Scientific, cat. 15630080), 1X GlutaMAX supplement (Thermo Fisher Scientific, cat. 35050061), 0.1 mg/mL primocin (InvivoGen, San Diego, CA, cat. ant-pm-2), 10% defined fetal bovine serum, heat inactivated (HyClone Laboratories Inc., Logan, UT, cat. SH30070.03HI), 50% L-WRN conditioned media (ATCC, cat. CRL-3276), 1.25 mM N-Acetyl-L-cysteine (Sigma-Aldrich, cat. A9165), 10 mM nicotinamide (Sigma-Aldrich, cat. N0636), 1X B-27 supplement (Thermo Fisher Scientific, cat. 17504044), 1X N-2 supplement (Thermo Fisher Scientific, cat. 17502048), and 10 microM Y-27632 dihydrochloride (Tocris Bioscience, Bristol, United Kingdom, cat. 1254). The 624824-186-R-J2-PDC line was cultured in 6C/Colon 1B media, which includes all 6A media components plus 50 ng/mL human EGF recombinant protein (Thermo Fisher Scientific, cat. PHG0311). […]

[1] = compound alone, run of 06/12/2023
[2] = compound alone, run of 06/13/2023
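Also: spheroids exposed to compounds for seven days before read-out.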

| Structure (SMILES) | viability, T/C (compound 0.000316 µM) | viability, T/C (compound 0.001 µM) | viability, T/C (compound 0.00316 µM) | viability, T/C (compound 0.01 µM) | viability, T/C (compound 0.0316 µM) | viability, T/C (compound 0.1 µM) | pIC50 (curve of compound) | viability, T/C (compound 0.316 µM) | viability, T/C (compound 1 µM) | viability, T/C (compound 3.16 µM) | viability, T/C (compound 10 µM) | IC50 (curve of compound) | IC50 [1] | pIC50 [2] | IC50 [2] | viability, T/C (compound 0.00949 µM) | viability, T/C (compound 0.03 µM) | viability, T/C (compound 0.0949 µM) | viability, T/C (compound 0.3 µM) | viability, T/C (compound 0.949 µM) | viability, T/C (compound 3 µM) |
| --- | --- | --- | --- | --- | --- | --- | --- | --- | --- | --- | --- | --- | --- | --- | --- | --- | --- | --- | --- | --- | --- |
| CC(=O)c1c(C)c2cnc(Nc3ccc(N4CCNCC4)cn3)nc2n(C2CCCC2)c1=O | 95.2% [middle of 4 runs] | 96.6% [middle of 4 runs] | 103% [middle of 4 runs] | 97.6% [middle of 4 runs] | 96.6% [middle of 4 runs] | 95.7% [middle of 4 runs] | < 7.00 |  |  |  |  |  |  |  |  |  |  |  |  |  |  |
| CC(C)NCC(C(=O)N1CCN(c2ncnc3c2C(C)CC3O)CC1)c1ccc(Cl)cc1 (stereo not given) |  |  |  |  | 92.7% [middle of 4 runs] | 91.5% [middle of 4 runs] |  | 80.4% [middle of 4 runs] | 50.5% [middle of 4 runs] | 24.3% [middle of 4 runs] | 15.2% [middle of 4 runs] | 1.02 µM [middle of 4 runs] |  |  |  |  |  |  |  |  |  |
| CC(C)n1nc(-c2ccc3oc(N)nc3c2)c2c(N)ncnc21 | 91% [middle of 4 runs] | 92.7% [middle of 4 runs] | 88.9% [middle of 4 runs] | 73.4% [middle of 4 runs] | 50.6% [middle of 4 runs] | 17.6% [middle of 4 runs] |  |  |  |  |  | 32.4 nM [middle of 4 runs] |  |  |  |  |  |  |  |  |  |
| CC(Cn1ccc(-c2ccc(C#N)c(Cl)c2)n1)NC(=O)c1cc(C(C)O)[nH]n1 (stereo not given) |  |  |  |  | 91.2% [middle of 4 runs] | 96.5% [middle of 4 runs] | < 5.00 | 97.1% [middle of 4 runs] | 108% and 101% (2×) and 96.8% |  | 99.4% (2×) and 105% and 106% |  |  |  |  |  |  |  |  |  |  |
| CC(Nc1ccc2c(c1)OCCn1cc(N3C(=O)OCC3C(F)F)nc1-2)C(N)=O (stereo not given) |  |  | 104% [middle of 8 runs] | 92.8% [middle of 8 runs] | 75.9% [middle of 8 runs] | 56.1% [middle of 8 runs] |  | 36.3% [middle of 8 runs] | 23.6% [middle of 8 runs] |  |  |  | 140 nM [middle of 7 runs] |  |  |  |  |  |  |  |  |
| CC(Nc1ncnc2nc[nH]c12)c1cc2cccc(Cl)c2c(=O)n1-c1ccccc1 (stereo not given) |  |  |  |  | 97.8% [middle of 8 runs] | 93.8% [middle of 8 runs] |  | 92.2% [middle of 8 runs] | 85.9% [middle of 8 runs] | 80% [middle of 8 runs] | 65% [middle of 8 runs] |  |  | < 5.00 |  |  |  |  |  |  |  |
| CC1(C)CCC(CN2CCN(c3ccc(C(=O)NS(=O)(=O)c4ccc(NCC5CCOCC5)c([N+](=O)[O-])c4)c(Oc4cnc5[nH]ccc5c4)c3)CC2)=C(c2ccc(Cl)cc2)C1 |  |  |  |  | 96.8% [middle of 4 runs] | 95.1% [middle of 4 runs] |  | 92.7% [middle of 4 runs] | 102% [middle of 4 runs] |  | 32.5% [middle of 4 runs] | 7.57 µM [middle of 4 runs] |  |  |  |  |  |  |  |  |  |
| CC1(C)CCC(Nc2ncc(C(F)(F)F)c(-c3c[nH]c4c(P(C)(C)=O)c(C#N)ccc34)n2)CN1 (stereo not given) |  |  |  |  | 51.7% [middle of 4 runs] | 51.8% [middle of 4 runs] |  | 53.5% [middle of 4 runs] | 53.4% [middle of 4 runs] | 55% and 54.4% (2×) and 52.7% | 7.36% [middle of 4 runs] |  |  |  |  |  |  |  |  |  |  |
| CCCS(=O)(=O)Nc1ccc(F)c(C(=O)c2c[nH]c3ncc(-c4ccc(Cl)cc4)cc23)c1F |  |  |  |  | 94.5% [middle of 4 runs] | 106% (2×) and 102% and 103% |  | 113% [middle of 4 runs] | 113% [middle of 4 runs] | 105% [middle of 4 runs] | 1.33% [middle of 4 runs] | 5.69 µM [middle of 4 runs] |  |  |  |  |  |  |  |  |  |
| CCN1CCN(Cc2ccc(Nc3ncc(F)c(-c4cc(F)c5nc(C)n(C(C)C)c5c4)n3)nc2)CC1 |  |  | 98.4% [middle of 4 runs] | 96.4% [middle of 4 runs] | 93.1% [middle of 4 runs] | 100% and 101% (2×) and 89.5% | < 6.00 | 88.2% [middle of 4 runs] | 85.2% [middle of 4 runs] |  |  |  |  |  |  |  |  |  |  |  |  |
| CNC(=O)c1ccc(N2C(=S)N(c3ccc(C#N)c(C(F)(F)F)c3)C(=O)C2(C)C)cc1F |  |  |  |  | 106% (2×) and 93.7% and 103% | 98% [middle of 4 runs] | < 5.00 | 93.5% [middle of 4 runs] | 102% (2×) and 112% and 107% |  | 88.5% [middle of 4 runs] |  |  |  |  |  |  |  |  |  |  |
| COc1c(OCCCN2CCOCC2)ccc2c3n(c(=NC(=O)c4cnc(N)nc4)nc12)CCN3 |  |  | 85% [middle of 8 runs] | 71.1% [middle of 8 runs] | 39.5% [middle of 8 runs] | 17.8% [middle of 8 runs] |  | 5.89% [middle of 8 runs] | 1.69% [middle of 7 runs] |  |  |  |  |  | 22.6 nM [middle of 6 runs] |  |  |  |  |  |  |
| C[C@@H](NC(=O)c1ncnc(N)c1Cl)c1ncc(C(=O)Nc2cc(C(F)(F)F)c(Cl)cn2)s1 |  |  |  |  | 105% (2×) and 98.5% and 118% | 104% (3×) and 103% | < 5.00 | 110% [middle of 4 runs] | 115% [middle of 4 runs] | 108% [middle of 4 runs] | 102% [middle of 4 runs] |  |  |  |  |  |  |  |  |  |  |
| Cc1nc(NC(=O)N2CCCC2C(N)=O)sc1-c1ccnc(C(C)(C)C(F)(F)F)c1 (stereo not given) |  |  |  |  | 90% [middle of 8 runs] | 80.7% [middle of 8 runs] |  | 64.2% [middle of 8 runs] | 43.8% [middle of 8 runs] | 28.4% [middle of 8 runs] | 13.6% [middle of 8 runs] |  | 746 nM [middle of 8 runs] |  |  |  |  |  |  |  |  |
| Cn1cnc2c(F)c(Nc3ccc(Br)cc3Cl)c(C(=O)NOCCO)cc21 |  |  |  |  |  |  |  |  |  |  |  | 1.01 µM [middle of 4 runs] |  |  |  | 90.5% (2×) and 83.8% and 88.8% | 81.4% [middle of 4 runs] | 72.3% [middle of 4 runs] | 66% [middle of 4 runs] | 54.8% [middle of 4 runs] | 37.9% [middle of 4 runs] |
| Cn1nccc1Nc1nccc(-c2ccn(C(CO)c3ccc(Cl)c(F)c3)c(=O)c2)n1 (stereo not given) |  |  |  |  | 90.7% [middle of 4 runs] | 97.3% [middle of 4 runs] | < 5.00 | 91.1% [middle of 4 runs] | 90% [middle of 4 runs] | 82.7% [middle of 4 runs] | 77.9% [middle of 4 runs] |  |  |  |  |  |  |  |  |  |  |
| Cn1ncnc1[C@H]1c2n[nH]c(=O)c3cc(F)cc(c23)N[C@@H]1c1ccc(F)cc1 | 97.2% [middle of 4 runs] | 101% [middle of 4 runs] | 103% [middle of 4 runs] | 115% and 101% (2×) and 97.3% | 101% (2×) and 96.9% and 92.6% | 94.8% [middle of 4 runs] | < 7.00 |  |  |  |  |  |  |  |  |  |  |  |  |  |  |
